Test results: US20090011052A1, “Anti-HIV medicinal herbs composition, preparation thereof and use of the same” (priority 2004, published 2009)

Experiments:
[1] = test system: SIVmac251; experiment: Blood CD4+ lymphocyte count in SIVmac251-infected Rhesus monkey; assay type: in vivo
From the text: They were fed with commercial popped feeds.
Measurement of blood CD4^+ count: Blood samples were drawn from the animals before infection and 14, 28, 42 and 60 days after infection with SIVmac251 Ficoll lymphocyte separation fluid was adopted to isolate the peripheral lymphocytes. After tagging the anti-CD4 monoclonal antibody with direct fluorescence, the cells were counted on FACS machine to obtain the CD4^+ percentage. In combination with WBC count with DC of routine blood examination, the total count of blood CD4^+ lymphocytes was calculated. • 1.

[2] = test system: SIVmac251; experiment: Plasma viral load in SIVmac251-infected Rhesus monkey; details: within the dosing range
From the text: Experiment animals: 5 females and 5 males Rhesus monkey as experimental animal with 4.5-5.5 Kg/each for a total of 10 were used, purchased from Primate Breeding Center, Research Institute of Experimental Animals, Chinese Academy of Medical Sciences. They were fed with commercial popped feeds. No abnormal physical examination was found before the experiment. Potential infections with SIV, SRV Type D and STLV-I were excluded by the serum IFA antibody test.
Each animal was intravenously infected with 1 ml virus solution equivalent to 3MID100 viral load.
Within each group, there were 3-4 animals with equal females and males. […] No drug treatment was offered for SIVmac251 infection control group.
Observation pre- and post-infection: Besides other pre-infection physical examinations, body weight and blood-drawing were made for each monkey (conducting all parameter tests). […] At the pre-determined timepoints, blood was drawn for the monkey to measure the plasma viral titer, blood CD4^+ count and antibody titre. […]
Plasma virus isolation: After the animals were infected with SIVmac251, to collect the blood samples were collected respectively at Days 7, 11, 14, 21, 28, 42, 60 and the plasma were separated by heparin anti-clotting. […] The viral titre was chosen for the sample with the lowest inoculation quantity but showing the typical patterns of cellular confluence. […]

## Cc1cn([C@H]2C[C@H](N=[N+]=[N-])[C@@H](CO)O2)c(=O)[nH]c1=O [AZT]
[1]; 2 and 4 weeks post-infection
  CD4 cells spared of the viral attacks (protected): 35%
[1]; 2 week infection
  CD4+ lymphocytes: 714.51
  CD4+ lymphocytes, Difference with control: 187.21
  CD4+ lymphocytes, Difference with control (%): (35.5%)
[1]; 4 week
  CD4+ lymphocytes: 540.57
  CD4+ lymphocytes, Difference with control: 137.96
  CD4+ lymphocytes, Difference with control (%): (34.27%)
[1]; 6 week
  CD4+ lymphocytes: 543.31
  CD4+ lymphocytes, Difference with control: 83.24
  CD4+ lymphocytes, Difference with control (%): (18.09%)
[1]; 8 w
  CD4+ lymphocytes: 530.95
  CD4+ lymphocytes, Difference with control (%): (43.0%)
[1]; Pre-experiment
  CD4+ lymphocytes: 959.86
[2]
  inhibition rate upon SIV: over 90%
